What all share (type): cell-based
Test [1] concerns the target T1, TLR2/6 (Homo sapiens, UniProt O60603+Q9Y2C9).
T1 construct: endogenous in cells; host or cells: THP1-derived macrophages (PMA-differentiated)
Nature of the test: FSL-1-induced TNF-α secretion (ELISA) in THP1-derived macrophages. Conditions: 1 to 50 μM, FIG. 4D. (In an ELISA, binding on a coated surface is turned into a signal by an enzyme label.)

Test [2] deals with T2, TLR3 (Homo sapiens, UniProt O15455).
T2 construct: endogenous in cells; host or cells: THP1-derived macrophages (PMA-differentiated)
T2 sequence (O15455 24-904): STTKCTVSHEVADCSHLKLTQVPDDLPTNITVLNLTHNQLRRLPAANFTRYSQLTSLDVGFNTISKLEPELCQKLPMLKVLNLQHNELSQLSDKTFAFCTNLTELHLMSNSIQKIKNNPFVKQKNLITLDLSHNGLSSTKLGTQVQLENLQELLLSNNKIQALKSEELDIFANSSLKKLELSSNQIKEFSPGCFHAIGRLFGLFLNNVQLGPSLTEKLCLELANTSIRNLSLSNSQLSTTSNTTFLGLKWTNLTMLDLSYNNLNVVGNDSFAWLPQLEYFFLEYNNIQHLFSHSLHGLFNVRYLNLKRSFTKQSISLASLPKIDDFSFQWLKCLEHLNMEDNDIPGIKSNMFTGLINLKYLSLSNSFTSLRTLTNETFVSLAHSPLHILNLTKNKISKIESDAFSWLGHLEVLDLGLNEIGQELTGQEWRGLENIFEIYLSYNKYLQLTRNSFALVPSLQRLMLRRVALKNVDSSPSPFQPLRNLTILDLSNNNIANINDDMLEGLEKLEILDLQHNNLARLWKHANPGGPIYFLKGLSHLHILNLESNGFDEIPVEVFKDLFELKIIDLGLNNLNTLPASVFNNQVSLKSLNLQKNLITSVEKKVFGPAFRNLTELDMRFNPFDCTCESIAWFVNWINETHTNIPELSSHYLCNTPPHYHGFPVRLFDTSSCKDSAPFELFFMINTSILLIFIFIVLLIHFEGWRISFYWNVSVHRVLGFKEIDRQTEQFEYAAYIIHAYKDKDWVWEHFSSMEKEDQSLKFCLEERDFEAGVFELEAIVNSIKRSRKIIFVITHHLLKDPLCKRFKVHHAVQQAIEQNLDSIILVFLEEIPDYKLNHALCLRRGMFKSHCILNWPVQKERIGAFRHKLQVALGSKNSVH
Description: poly(I:C)-induced TNF-α or IL-6 secretion in THP1-derived macrophages. Conditions: dose-dependent manner, FIGS. 4E-4G.

The target of test [3] is T3, TLR7 (Homo sapiens, UniProt Q9NYK1).
T3 construct: endogenous in cells; host or cells: THP1-derived macrophages (PMA-differentiated)
T3 sequence (Q9NYK1 27-1049): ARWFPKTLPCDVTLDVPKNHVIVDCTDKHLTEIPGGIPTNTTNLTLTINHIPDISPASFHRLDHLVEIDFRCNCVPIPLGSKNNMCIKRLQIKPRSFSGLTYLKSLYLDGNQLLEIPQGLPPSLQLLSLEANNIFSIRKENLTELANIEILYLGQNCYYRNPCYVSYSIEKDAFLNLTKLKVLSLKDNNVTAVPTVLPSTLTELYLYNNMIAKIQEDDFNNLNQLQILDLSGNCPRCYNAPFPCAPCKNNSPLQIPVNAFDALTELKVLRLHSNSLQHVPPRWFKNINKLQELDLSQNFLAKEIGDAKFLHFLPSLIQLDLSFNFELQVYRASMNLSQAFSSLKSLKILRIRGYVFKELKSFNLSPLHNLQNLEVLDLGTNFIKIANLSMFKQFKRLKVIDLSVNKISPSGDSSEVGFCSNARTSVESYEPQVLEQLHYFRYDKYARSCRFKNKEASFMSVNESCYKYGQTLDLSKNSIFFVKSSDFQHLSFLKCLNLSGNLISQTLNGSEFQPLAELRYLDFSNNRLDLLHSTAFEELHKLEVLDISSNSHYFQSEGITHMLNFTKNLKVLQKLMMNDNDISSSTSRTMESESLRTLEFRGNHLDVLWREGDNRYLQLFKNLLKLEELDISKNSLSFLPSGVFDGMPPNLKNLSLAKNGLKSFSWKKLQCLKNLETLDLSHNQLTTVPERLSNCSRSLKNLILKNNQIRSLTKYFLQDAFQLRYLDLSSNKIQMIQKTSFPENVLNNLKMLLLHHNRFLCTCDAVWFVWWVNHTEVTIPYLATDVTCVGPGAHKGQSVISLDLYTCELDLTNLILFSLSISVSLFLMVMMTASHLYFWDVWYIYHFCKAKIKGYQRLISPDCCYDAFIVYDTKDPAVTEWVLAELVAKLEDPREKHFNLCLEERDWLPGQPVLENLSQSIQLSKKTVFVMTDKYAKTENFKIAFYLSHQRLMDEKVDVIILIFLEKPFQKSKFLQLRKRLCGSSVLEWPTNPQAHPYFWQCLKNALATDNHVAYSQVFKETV
Nature of the test: IMQ, R848 or CL075-induced TNF-α or IL-6 secretion in THP1-derived macrophages. Conditions: R848 or CL075, dose-dependent manner, FIGS. 4E-4G.

The target of test [4] is T4, TLR8 (Homo sapiens, UniProt Q9NR97).
T4 construct: endogenous in cells; host or cells: THP1-derived macrophages (PMA-differentiated)
T4 sequence (Q9NR97 27-1041): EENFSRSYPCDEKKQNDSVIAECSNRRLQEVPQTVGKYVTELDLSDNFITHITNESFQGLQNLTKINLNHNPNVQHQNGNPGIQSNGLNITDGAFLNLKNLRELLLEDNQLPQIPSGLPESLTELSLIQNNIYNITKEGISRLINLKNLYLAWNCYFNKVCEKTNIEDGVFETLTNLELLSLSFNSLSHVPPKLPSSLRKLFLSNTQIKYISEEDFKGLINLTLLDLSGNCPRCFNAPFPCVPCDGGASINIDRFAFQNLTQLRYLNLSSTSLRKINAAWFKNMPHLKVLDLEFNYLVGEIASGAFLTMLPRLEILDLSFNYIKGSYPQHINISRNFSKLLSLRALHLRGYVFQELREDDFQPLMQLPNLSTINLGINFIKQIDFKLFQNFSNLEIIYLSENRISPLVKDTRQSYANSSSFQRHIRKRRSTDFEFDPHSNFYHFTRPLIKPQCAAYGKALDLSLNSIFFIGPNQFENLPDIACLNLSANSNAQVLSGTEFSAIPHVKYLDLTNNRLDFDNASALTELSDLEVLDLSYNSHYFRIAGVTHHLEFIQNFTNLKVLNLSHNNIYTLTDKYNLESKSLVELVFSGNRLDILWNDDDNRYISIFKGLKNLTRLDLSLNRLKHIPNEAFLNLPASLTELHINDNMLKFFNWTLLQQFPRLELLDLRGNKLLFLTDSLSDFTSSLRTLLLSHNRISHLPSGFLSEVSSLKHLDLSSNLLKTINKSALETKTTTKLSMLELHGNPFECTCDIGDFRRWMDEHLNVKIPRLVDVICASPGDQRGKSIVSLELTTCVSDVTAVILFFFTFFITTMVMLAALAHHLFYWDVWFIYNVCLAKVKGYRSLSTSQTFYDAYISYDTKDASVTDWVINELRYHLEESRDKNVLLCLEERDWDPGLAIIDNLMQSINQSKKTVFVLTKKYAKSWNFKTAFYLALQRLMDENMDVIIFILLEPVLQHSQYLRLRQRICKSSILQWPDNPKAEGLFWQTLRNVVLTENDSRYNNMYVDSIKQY
Description: TL8, R848 or CL075-induced TNF-α or IL-6 secretion in THP1-derived macrophages. The following applies: TL8, R848 or CL075, dose-dependent manner, FIGS. 4E-4G.

Structures are written as SMILES.

T1 sequence (O60603 21-784): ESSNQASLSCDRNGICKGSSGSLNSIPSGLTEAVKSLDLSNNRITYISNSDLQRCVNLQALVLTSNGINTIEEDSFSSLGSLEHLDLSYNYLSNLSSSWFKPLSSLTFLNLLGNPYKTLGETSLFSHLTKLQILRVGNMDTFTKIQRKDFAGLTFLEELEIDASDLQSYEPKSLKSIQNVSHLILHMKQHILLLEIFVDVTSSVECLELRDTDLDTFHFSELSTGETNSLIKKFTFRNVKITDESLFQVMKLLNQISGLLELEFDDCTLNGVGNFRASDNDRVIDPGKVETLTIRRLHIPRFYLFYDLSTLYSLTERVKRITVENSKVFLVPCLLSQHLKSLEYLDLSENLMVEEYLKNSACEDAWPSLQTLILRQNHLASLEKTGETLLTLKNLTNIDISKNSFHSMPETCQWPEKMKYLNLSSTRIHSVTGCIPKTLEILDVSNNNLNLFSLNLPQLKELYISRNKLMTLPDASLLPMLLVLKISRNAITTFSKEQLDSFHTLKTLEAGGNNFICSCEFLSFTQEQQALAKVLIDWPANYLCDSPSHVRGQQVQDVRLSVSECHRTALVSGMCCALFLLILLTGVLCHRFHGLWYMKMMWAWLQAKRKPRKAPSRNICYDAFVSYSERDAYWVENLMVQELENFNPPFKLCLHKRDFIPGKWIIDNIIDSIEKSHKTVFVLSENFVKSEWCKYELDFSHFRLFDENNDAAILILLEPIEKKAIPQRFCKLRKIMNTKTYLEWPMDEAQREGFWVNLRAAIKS
T1 sequence (Q9Y2C9 32-796): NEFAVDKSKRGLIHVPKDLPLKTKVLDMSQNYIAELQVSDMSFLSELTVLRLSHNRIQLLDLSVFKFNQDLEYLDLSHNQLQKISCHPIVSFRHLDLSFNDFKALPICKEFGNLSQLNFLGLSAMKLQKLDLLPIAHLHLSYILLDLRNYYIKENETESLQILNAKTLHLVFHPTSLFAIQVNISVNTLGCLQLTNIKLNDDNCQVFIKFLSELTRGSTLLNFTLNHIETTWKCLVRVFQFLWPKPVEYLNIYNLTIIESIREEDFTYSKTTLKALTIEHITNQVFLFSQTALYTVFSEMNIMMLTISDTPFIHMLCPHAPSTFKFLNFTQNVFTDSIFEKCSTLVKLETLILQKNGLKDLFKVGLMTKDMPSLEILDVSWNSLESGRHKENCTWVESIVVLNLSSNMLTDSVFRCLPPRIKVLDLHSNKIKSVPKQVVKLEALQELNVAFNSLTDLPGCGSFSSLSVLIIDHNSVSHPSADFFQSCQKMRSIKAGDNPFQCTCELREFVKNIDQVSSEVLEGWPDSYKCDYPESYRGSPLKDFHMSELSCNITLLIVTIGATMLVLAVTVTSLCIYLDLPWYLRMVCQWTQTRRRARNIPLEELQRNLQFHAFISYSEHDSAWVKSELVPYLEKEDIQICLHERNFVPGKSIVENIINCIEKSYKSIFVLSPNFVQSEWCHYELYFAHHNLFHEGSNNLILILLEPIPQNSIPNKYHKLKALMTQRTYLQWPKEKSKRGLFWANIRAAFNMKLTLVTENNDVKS

On to `Nc1cccc(COc2cccnc2N)c1` [TAC5-a, 3-((3-aminobenzyl)oxy)pyridin-2-amine], for which the “TLR2/6 (FSL-1)-mediated TNF-α secretion” value in test [1] is given as “did not block”. Further, the “TLR3-mediated TNF-α or IL-6 secretion” value in test [2] is “significantly inhibited”. Also, the “TLR7-mediated TNF-α or IL-6 secretion” value in test [3] is given as “significantly inhibited”. The “TLR8-mediated TNF-α or IL-6 secretion” value in test [4] was “significantly inhibited”.

Values taken from patent US11629155B2, “Small molecule antagonist compound TAC5 series having toll-like receptor 3/7/8/9 inhibitory function” (AJOU UNIVERSITY INDUSTRY-ACADEMIC COOPERATION FOUNDATION, priority 2018, dated 2023).
